Legend:
EMT6 cells = assay: CD73hi EMT6 syngeneic tumor model, tumor growth; format: in vivo, mice; conditions: Day 10 post treatment initiation, Compound A 300 mg/kg po BID alone
Description: (§1) Female BALB/c mice were inoculated with 2.5×10^5 EMT6 cells into the right mammary fat pad and were treated with Compound A (300 mg/kg po, BID), bintrafusp alfa (24.6 mg/kg iv, days 0, 3, 6), Compound A+bintrafusp alfa, when average tumor volume reached approximately 60 mm^3. Vehicle (po, BID) and isotype control antibody injections (20 mg/kg iv, days 0, 3, 6) were used as controls. (A) Average tumor volumes with SEM, and (B) individual tumor volumes are presented. Tumor volume data were analyzed using two-way ANOVA followed by Tukey's multiple comparison test.
(§2) To determine whether combined treatment with the dual A2A/A2B receptor inhibitor “Compound A” ((S)-7-Oxa-2-aza-spiro[4.5]decane-2-carboxylic acid [7-(3,6-dihydro-2H-pyran-4-yl)-4-methoxy-thiazolo[4,5-c]pyridin-2-yl]-amide) and bintrafusp alfa can inhibit tumor growth in either CD73^hi or CD73^low models, tumor growth was monitored in […] syngeneic tumor models. Animals were inoculated with either CD73^hi tumor cells (4T1, E0771, or EMT6) or with CD73^low MC38, H22 or MBT2 tumor cells. For all tumor models, animals were treated with either 1) vehicle and isotype, 2) Compound A and isotype, 3) vehicle and bintrafusp alfa, or 4) Compound A and bintrafusp alfa. […]

CD73 KO 4T1 tumor cells = assay: CD73-KO 4T1 syngeneic tumor model, tumor growth; format: in vivo; conditions: CD73 KO 4T1, female BALB/c mice; Day 18 post treatment initiation; Compound A 300 mg/kg po bid; bintrafusp alfa 24.6 mg/kg iv days 0, 3, 6
Description: as §1, with “1×10^5 CD73 KO 4T1 tumor” for “2.5×10^5 EMT6”, “bid),” for “BID),”, “bid)” for “BID)”
Further to the results of Example 3, tumor growth inhibition by the combined treatment with the dual A2A/A2B receptor inhibitor “Compound A” ((S)-7-Oxa-2-aza-spiro[4.5]decane-2-carboxylic acid [7-(3,6-dihydro-2H-pyran-4-yl)-4-methoxy-thiazolo[4,5-c]pyridin-2-yl]-amide) and bintrafusp alfa was examined in a syngeneic 4T1 tumor model, in which CD73 was knocked-out using GenCRISPR™ gene editing technology (GenScript USA, Inc). Efficacy of CD73 knockout in 4T1 tumor cells was confirmed by flow cytometry. Female BALB/c mice were inoculated into the right mammary fat pad with 1×10^5 CD73 KO 4T1 tumor cells and were treated with Compound A (300 mg/kg po, bid), bintrafusp alfa (24.6 mg/kg iv, days 0, 3, 6), Compound A+bintrafusp alfa, when average tumor volume reached approximately 60 mm^3. […]

MC38 cells = assay: CD73low MC38 syngeneic tumor model, tumor growth; format: in vivo, mice
Description: as §1, with “C57BL/6” for “BALB/c”, “1×10^6 MC38” for “2.5×10^5 EMT6”, “in” for “into”, “lower flank” for “mammary fat pad”, “70” for “60”
as §2

MBT2 cells = assay: CD73low MBT2 syngeneic tumor model, tumor growth; format: in vivo; conditions: MBT2, female C3H mice; Day 14; Compound A 300 mg/kg po BID; bintrafusp alfa 24.6 mg/kg iv days 0, 3, 6
Description: as §1, with “C3H” for “BALB/c”, “1×10^6 MBT2” for “2.5×10^5 EMT6”, “in” for “into”, “upper flank” for “mammary fat pad”, “53” for “60”
as §2

COc1ncc(C2=CCOCC2)c2sc(NC(=O)N3CC[C@@]4(CCCOC4)C3)nc12 [Compound A, (S)-7-Oxa-2-aza-spiro[4.5]decane-2-carboxylic acid [7-(3,6-dihydro-2H-pyran-4-yl)-4-methoxy-thiazolo[4,5-c]pyridin-2-yl]-amide]
tumor growth inhibition (EMT6 cells): did not show tumor growth inhibition | tumor growth inhibition, T/C (CD73 KO 4T1 tumor cells): 108% | tumor growth inhibition (MC38 cells; MC38, Compound A 300 mg/kg po BID monotherapy): no tumor growth inhibition observed

bintrafusp alfa: anti-PD-L1:TGFβRII fusion protein, CAS 1918149-01-5; human IgG1 antibody against PD-L1 fused to extracellular domain of human TGF-β receptor II
tumor growth inhibition, T/C (CD73 KO 4T1 tumor cells): 75.4% | tumor growth inhibition, T/C (MC38 cells; MC38, female C57BL/6 mice, Day 22 post treatment initiation, Compound A 300 mg/kg po BID, bintrafusp alfa 24.6 mg/kg iv days 0, 3, 6): 42.1% | tumor growth inhibition, T/C (MBT2 cells): 29.9%

— patent US20240279338A1, “Combination Treatment of Cancer” (Ares Trading S.A., priority 2021, published 2024)
